What was measured:
Test in all cases: relative viability (nuclei count vs DMSO), 5 days (fraction); higher = more cells survive
VE-821 + Dasatinib = compound: CS(=O)(=O)c1ccc(-c2cnc(N)c(C(=O)Nc3ccccc3)n2)cc1 [VE-821] + Cc1nc(Nc2ncc(C(=O)Nc3c(C)cccc3Cl)s2)cc(N2CCN(CCO)CC2)n1 [Dasatinib] (partner 0.075 µM)
In short: (§1)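 After 5 days of treatment, lung cancer cells in 1536-well plates were fixed and stained in a single step (final 0.05% Triton X-100, 1% formaldehyde, 1 ug/ml Hoechst) and their nuclei counted on 4× images. Treatment had been applied by pin tool the day after seeding as one drug alone or as a fixed anchor-drug dose with five library-drug doses (not always all listed) in √10 steps. Relative viability is the nuclei count of treated wells divided by that of vehicle wells, and values are medians of duplicate plates.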

Vismodegib + Palbociclib = compound: CS(=O)(=O)c1ccc(C(=O)Nc2ccc(Cl)c(-c3ccccn3)c2)c(Cl)c1 [Vismodegib] + CC(=O)c1c(C)c2cnc(Nc3ccc(N4CCNCC4)cn3)nc2n(C2CCCC2)c1=O [Palbociclib] (partner 0.5 µM)
In short: as §1

Vismodegib + Navitoclax = compound: CS(=O)(=O)c1ccc(C(=O)Nc2ccc(Cl)c(-c3ccccn3)c2)c(Cl)c1 [Vismodegib] + CC1(C)CCC(c2ccc(Cl)cc2)=C(CN2CCN(c3ccc(C(=O)NS(=O)(=O)c4ccc(N[C@H](CCN5CCOCC5)CSc5ccccc5)c(S(=O)(=O)C(F)(F)F)c4)cc3)CC2)C1 [Navitoclax] (partner 0.5 µM)
In short: as §1

Ruxolitinib + AZD7762 = compound: N#CC[C@H](C1CCCC1)n1cc(-c2ncnc3[nH]ccc23)cn1 [Ruxolitinib] + NC(=O)Nc1cc(-c2cccc(F)c2)sc1C(=O)N[C@H]1CCCNC1 [AZD7762] (partner 0.2 µM)
In short: as §1

201T
relative viability (VE-821 + Dasatinib; first compound 0.08 µM): 0.588 | relative viability (VE-821 + Dasatinib; first compound 0.253 µM): 0.529 | relative viability (VE-821 + Dasatinib; first compound 0.8 µM): 0.476 | relative viability (VE-821 + Dasatinib; first compound 2.53 µM): 0.434 | relative viability (VE-821 + Dasatinib; first compound 8 µM): 0.44 | relative viability (Vismodegib + Palbociclib; first compound 0.08 µM): 0.323 | relative viability (Vismodegib + Palbociclib; first compound 0.253 µM): 0.393 | relative viability (Vismodegib + Palbociclib; first compound 0.8 µM): 0.363 | relative viability (Vismodegib + Palbociclib; first compound 2.53 µM): 0.359 | relative viability (Vismodegib + Palbociclib; first compound 8 µM): 0.382 | relative viability (Vismodegib + Navitoclax; first compound 0.08 µM): 1.23 | relative viability (Vismodegib + Navitoclax; first compound 0.253 µM): 1.18 | relative viability (Vismodegib + Navitoclax; first compound 0.8 µM): 1.15 | relative viability (Vismodegib + Navitoclax; first compound 2.53 µM): 1.23 | relative viability (Vismodegib + Navitoclax; first compound 8 µM): 1.17 | relative viability (Ruxolitinib + AZD7762; first compound 0.08 µM): 0.583 | relative viability (Ruxolitinib + AZD7762; first compound 0.253 µM): 0.622 | relative viability (Ruxolitinib + AZD7762; first compound 0.8 µM): 0.595 | relative viability (Ruxolitinib + AZD7762; first compound 2.53 µM): 0.649 | relative viability (Ruxolitinib + AZD7762; first compound 8 µM): 0.763

A-427
relative viability (VE-821 + Dasatinib; first compound 0.08 µM): 0.793 | relative viability (VE-821 + Dasatinib; first compound 0.253 µM): 0.647 | relative viability (VE-821 + Dasatinib; first compound 0.8 µM): 0.657 | relative viability (VE-821 + Dasatinib; first compound 2.53 µM): 0.652 | relative viability (VE-821 + Dasatinib; first compound 8 µM): 0.423 | relative viability (Vismodegib + Palbociclib; first compound 0.08 µM): 0.536 | relative viability (Vismodegib + Palbociclib; first compound 0.253 µM): 0.525 | relative viability (Vismodegib + Palbociclib; first compound 0.8 µM): 0.506 | relative viability (Vismodegib + Palbociclib; first compound 2.53 µM): 0.493 | relative viability (Vismodegib + Palbociclib; first compound 8 µM): 0.566 | relative viability (Vismodegib + Navitoclax; first compound 0.08 µM): 0.988 | relative viability (Vismodegib + Navitoclax; first compound 0.253 µM): 0.897 | relative viability (Vismodegib + Navitoclax; first compound 0.8 µM): 0.889 | relative viability (Vismodegib + Navitoclax; first compound 2.53 µM): 1 | relative viability (Vismodegib + Navitoclax; first compound 8 µM): 0.976 | relative viability (Ruxolitinib + AZD7762; first compound 0.08 µM): 0.821 | relative viability (Ruxolitinib + AZD7762; first compound 0.253 µM): 0.763 | relative viability (Ruxolitinib + AZD7762; first compound 0.8 µM): 0.729 | relative viability (Ruxolitinib + AZD7762; first compound 2.53 µM): 0.453 | relative viability (Ruxolitinib + AZD7762; first compound 8 µM): 0.508

BEN
relative viability (VE-821 + Dasatinib; first compound 0.08 µM): 0.31 | relative viability (VE-821 + Dasatinib; first compound 0.253 µM): 0.337 | relative viability (VE-821 + Dasatinib; first compound 0.8 µM): 0.282 | relative viability (VE-821 + Dasatinib; first compound 2.53 µM): 0.291 | relative viability (VE-821 + Dasatinib; first compound 8 µM): 0.364 | relative viability (Vismodegib + Palbociclib; first compound 0.08 µM): 0.455 | relative viability (Vismodegib + Palbociclib; first compound 0.253 µM): 0.483 | relative viability (Vismodegib + Palbociclib; first compound 0.8 µM): 0.469 | relative viability (Vismodegib + Palbociclib; first compound 2.53 µM): 0.479 | relative viability (Vismodegib + Palbociclib; first compound 8 µM): 0.512 | relative viability (Vismodegib + Navitoclax; first compound 0.08 µM): 0.0646 | relative viability (Vismodegib + Navitoclax; first compound 0.253 µM): 0.062 | relative viability (Vismodegib + Navitoclax; first compound 0.8 µM): 0.0698 | relative viability (Vismodegib + Navitoclax; first compound 2.53 µM): 0.0746 | relative viability (Vismodegib + Navitoclax; first compound 8 µM): 0.0684 | relative viability (Ruxolitinib + AZD7762; first compound 0.08 µM): 0.777 | relative viability (Ruxolitinib + AZD7762; first compound 0.253 µM): 0.655 | relative viability (Ruxolitinib + AZD7762; first compound 0.8 µM): 0.793 | relative viability (Ruxolitinib + AZD7762; first compound 2.53 µM): 0.813 | relative viability (Ruxolitinib + AZD7762; first compound 8 µM): 0.827

CAL-12T
relative viability (VE-821 + Dasatinib; first compound 0.08 µM): 0.499 | relative viability (VE-821 + Dasatinib; first compound 0.253 µM): 0.327 | relative viability (VE-821 + Dasatinib; first compound 0.8 µM): 0.372 | relative viability (VE-821 + Dasatinib; first compound 2.53 µM): 0.443 | relative viability (VE-821 + Dasatinib; first compound 8 µM): 0.243 | relative viability (Vismodegib + Palbociclib; first compound 0.08 µM): 0.45 | relative viability (Vismodegib + Palbociclib; first compound 0.253 µM): 0.499 | relative viability (Vismodegib + Palbociclib; first compound 0.8 µM): 0.569 | relative viability (Vismodegib + Palbociclib; first compound 2.53 µM): 0.454 | relative viability (Vismodegib + Palbociclib; first compound 8 µM): 0.442 | relative viability (Vismodegib + Navitoclax; first compound 0.08 µM): 1.21 | relative viability (Vismodegib + Navitoclax; first compound 0.253 µM): 0.965 | relative viability (Vismodegib + Navitoclax; first compound 0.8 µM): 1.33 | relative viability (Vismodegib + Navitoclax; first compound 2.53 µM): 1.23 | relative viability (Vismodegib + Navitoclax; first compound 8 µM): 1.24 | relative viability (Ruxolitinib + AZD7762; first compound 0.08 µM): 0.623 | relative viability (Ruxolitinib + AZD7762; first compound 0.253 µM): 0.688 | relative viability (Ruxolitinib + AZD7762; first compound 0.8 µM): 0.694 | relative viability (Ruxolitinib + AZD7762; first compound 2.53 µM): 0.732 | relative viability (Ruxolitinib + AZD7762; first compound 8 µM): 0.608

ChaGo-K-1
relative viability (VE-821 + Dasatinib; first compound 0.08 µM): 0.553 | relative viability (VE-821 + Dasatinib; first compound 0.253 µM): 0.525 | relative viability (VE-821 + Dasatinib; first compound 0.8 µM): 0.582 | relative viability (VE-821 + Dasatinib; first compound 2.53 µM): 0.62 | relative viability (VE-821 + Dasatinib; first compound 8 µM): 0.418 | relative viability (Vismodegib + Palbociclib; first compound 0.08 µM): 0.913 | relative viability (Vismodegib + Palbociclib; first compound 0.253 µM): 0.968 | relative viability (Vismodegib + Palbociclib; first compound 0.8 µM): 0.893 | relative viability (Vismodegib + Palbociclib; first compound 2.53 µM): 0.927 | relative viability (Vismodegib + Palbociclib; first compound 8 µM): 0.915 | relative viability (Vismodegib + Navitoclax; first compound 0.08 µM): 0.994 | relative viability (Vismodegib + Navitoclax; first compound 0.253 µM): 1.14 | relative viability (Vismodegib + Navitoclax; first compound 0.8 µM): 0.956 | relative viability (Vismodegib + Navitoclax; first compound 2.53 µM): 0.977 | relative viability (Vismodegib + Navitoclax; first compound 8 µM): 0.986 | relative viability (Ruxolitinib + AZD7762; first compound 0.08 µM): 0.909 | relative viability (Ruxolitinib + AZD7762; first compound 0.253 µM): 0.853 | relative viability (Ruxolitinib + AZD7762; first compound 0.8 µM): 0.869 | relative viability (Ruxolitinib + AZD7762; first compound 2.53 µM): 0.834 | relative viability (Ruxolitinib + AZD7762; first compound 8 µM): 0.703

EKVX
relative viability (VE-821 + Dasatinib; first compound 0.08 µM): 0.531 | relative viability (VE-821 + Dasatinib; first compound 0.253 µM): 0.483 | relative viability (VE-821 + Dasatinib; first compound 0.8 µM): 0.449 | relative viability (VE-821 + Dasatinib; first compound 2.53 µM): 0.45 | relative viability (VE-821 + Dasatinib; first compound 8 µM): 0.328 | relative viability (Vismodegib + Palbociclib; first compound 0.253 µM): 0.38 | relative viability (Vismodegib + Palbociclib; first compound 0.8 µM): 0.392 | relative viability (Vismodegib + Palbociclib; first compound 2.53 µM): 0.325 | relative viability (Vismodegib + Palbociclib; first compound 8 µM): 0.433 | relative viability (Vismodegib + Navitoclax; first compound 0.08 µM): 0.664 | relative viability (Vismodegib + Navitoclax; first compound 0.253 µM): 0.901 | relative viability (Vismodegib + Navitoclax; first compound 0.8 µM): 0.999 | relative viability (Vismodegib + Navitoclax; first compound 2.53 µM): 0.899 | relative viability (Vismodegib + Navitoclax; first compound 8 µM): 0.914 | relative viability (Ruxolitinib + AZD7762; first compound 0.253 µM): 0.77 | relative viability (Ruxolitinib + AZD7762; first compound 0.8 µM): 0.848 | relative viability (Ruxolitinib + AZD7762; first compound 2.53 µM): 0.799 | relative viability (Ruxolitinib + AZD7762; first compound 8 µM): 0.698

EMC-BAC-2
relative viability (VE-821 + Dasatinib; first compound 0.08 µM): 0.349 | relative viability (VE-821 + Dasatinib; first compound 0.253 µM): 0.316 | relative viability (VE-821 + Dasatinib; first compound 0.8 µM): 0.346 | relative viability (VE-821 + Dasatinib; first compound 2.53 µM): 0.342 | relative viability (VE-821 + Dasatinib; first compound 8 µM): 0.275 | relative viability (Vismodegib + Palbociclib; first compound 0.08 µM): 0.508 | relative viability (Vismodegib + Palbociclib; first compound 0.253 µM): 0.498 | relative viability (Vismodegib + Palbociclib; first compound 0.8 µM): 0.516 | relative viability (Vismodegib + Palbociclib; first compound 2.53 µM): 0.508 | relative viability (Vismodegib + Palbociclib; first compound 8 µM): 0.546 | relative viability (Vismodegib + Navitoclax; first compound 0.08 µM): 1.11 | relative viability (Vismodegib + Navitoclax; first compound 0.253 µM): 1.15 | relative viability (Vismodegib + Navitoclax; first compound 0.8 µM): 1.23 | relative viability (Vismodegib + Navitoclax; first compound 2.53 µM): 1.13 | relative viability (Vismodegib + Navitoclax; first compound 8 µM): 1.19 | relative viability (Ruxolitinib + AZD7762; first compound 0.08 µM): 1.07 | relative viability (Ruxolitinib + AZD7762; first compound 0.253 µM): 1.03 | relative viability (Ruxolitinib + AZD7762; first compound 0.8 µM): 1.3 | relative viability (Ruxolitinib + AZD7762; first compound 2.53 µM): 1.08 | relative viability (Ruxolitinib + AZD7762; first compound 8 µM): 0.695

EPLC-272H
relative viability (VE-821 + Dasatinib; first compound 0.08 µM): 0.341 | relative viability (VE-821 + Dasatinib; first compound 0.253 µM): 0.325 | relative viability (VE-821 + Dasatinib; first compound 0.8 µM): 0.418 | relative viability (VE-821 + Dasatinib; first compound 2.53 µM): 0.41 | relative viability (VE-821 + Dasatinib; first compound 8 µM): 0.219 | relative viability (Vismodegib + Palbociclib; first compound 0.08 µM): 0.307 | relative viability (Vismodegib + Palbociclib; first compound 0.253 µM): 0.305 | relative viability (Vismodegib + Palbociclib; first compound 0.8 µM): 0.355 | relative viability (Vismodegib + Palbociclib; first compound 2.53 µM): 0.342 | relative viability (Vismodegib + Palbociclib; first compound 8 µM): 0.311 | relative viability (Vismodegib + Navitoclax; first compound 0.08 µM): 1.01 | relative viability (Vismodegib + Navitoclax; first compound 0.253 µM): 1.2 | relative viability (Vismodegib + Navitoclax; first compound 0.8 µM): 1.09 | relative viability (Vismodegib + Navitoclax; first compound 2.53 µM): 1.09 | relative viability (Vismodegib + Navitoclax; first compound 8 µM): 1.09 | relative viability (Ruxolitinib + AZD7762; first compound 0.08 µM): 0.321 | relative viability (Ruxolitinib + AZD7762; first compound 0.253 µM): 0.267 | relative viability (Ruxolitinib + AZD7762; first compound 0.8 µM): 0.244 | relative viability (Ruxolitinib + AZD7762; first compound 2.53 µM): 0.285 | relative viability (Ruxolitinib + AZD7762; first compound 8 µM): 0.316

Source: the supplement of paper PMC10307832
